Measured values as given in patent US20230135524A1, “ARYL HYDANTOIN HETEROCYCLES AND METHODS OF USE” (The United States of America,as represented by the …, priority 2020, published 2023).

Tests used:
LAPC4 = experiment: IncuCyte % confluence cell growth inhibition, LAPC4; assay type: cell-based; details: Homo sapiens, LAPC4, read-out: IC50 values (μM), LAPC4
Experimental: (§1) Images were then analyzed to discern the % confluence of cells in each well. IC50 values were calculated from dose response curves of the % cell growth inhibition relative to DMSO control at the same time point per each cell line.

LNCaP ARin vivo = experiment: IncuCyte % confluence cell growth inhibition, LNCaP ARin vivo; assay type: cell-based; details: Homo sapiens, read-out: IC50 values (μM), LNCaP ARin vivo
Experimental: as §1

LNCaP = experiment: IncuCyte % confluence cell growth inhibition, LNCaP; assay type: cell-based; details: Homo sapiens, read-out: IC50 values (μM), LNCaP
Experimental: as §1

LNCaP ARF876L = experiment: IncuCyte % confluence cell growth inhibition, LNCaP ARF876L; assay type: cell-based; details: Homo sapiens, AR-positive, AR mutation F876L, % cell growth inhibition relative to DMSO
Experimental: as §1

AR = molecular target: T1, AR (Homo sapiens, UniProt P10275); experiment: AR transcriptional output, ARE-luciferase assay in HEK 293T cells; assay type: cell-based; details: for antagonist or inverse agonist activity on AR transcriptional activity (in words): 10 μM, HEK 293T, FIG. 6A; for activity at 10 µM: HEK-293T, read-out: AR antagonist activity (% RLU)
T1 construct: host or cells: HEK 293T
T1 sequence (P10275 1-920): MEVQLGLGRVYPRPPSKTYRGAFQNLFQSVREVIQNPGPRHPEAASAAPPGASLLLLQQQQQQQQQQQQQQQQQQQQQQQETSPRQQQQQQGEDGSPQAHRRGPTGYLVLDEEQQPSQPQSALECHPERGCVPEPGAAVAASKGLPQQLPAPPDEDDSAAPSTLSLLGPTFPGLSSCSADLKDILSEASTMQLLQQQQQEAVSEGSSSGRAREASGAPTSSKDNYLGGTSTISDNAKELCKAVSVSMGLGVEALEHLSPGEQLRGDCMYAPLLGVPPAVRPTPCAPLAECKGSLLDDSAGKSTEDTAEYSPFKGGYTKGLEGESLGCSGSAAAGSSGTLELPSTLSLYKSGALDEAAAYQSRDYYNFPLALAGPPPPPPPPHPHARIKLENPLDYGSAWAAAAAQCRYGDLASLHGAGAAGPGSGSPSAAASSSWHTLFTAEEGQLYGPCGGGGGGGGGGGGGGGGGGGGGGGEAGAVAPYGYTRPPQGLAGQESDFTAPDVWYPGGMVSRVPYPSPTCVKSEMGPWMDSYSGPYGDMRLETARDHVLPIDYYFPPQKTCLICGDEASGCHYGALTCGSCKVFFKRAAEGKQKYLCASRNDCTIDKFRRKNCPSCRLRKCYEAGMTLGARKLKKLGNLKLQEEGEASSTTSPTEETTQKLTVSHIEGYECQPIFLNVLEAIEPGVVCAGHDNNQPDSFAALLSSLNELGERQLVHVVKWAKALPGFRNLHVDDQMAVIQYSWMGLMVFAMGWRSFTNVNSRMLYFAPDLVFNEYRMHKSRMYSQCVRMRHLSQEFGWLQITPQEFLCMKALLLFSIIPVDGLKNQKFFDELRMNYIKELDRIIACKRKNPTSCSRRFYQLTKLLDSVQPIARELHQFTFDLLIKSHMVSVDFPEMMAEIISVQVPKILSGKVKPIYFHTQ
Experimental: 100% is set to the activity with 200 μM testosterone, and 0% is set to the basal level (no ligand).
Cells were maintained in steroid free media, and stimulated with 200 μM testosterone, followed immediately by administration of exemplary compounds (Table 1, below). RLU is relative luciferase units, relative to DMSO control with 200 μM testosterone alone. Data represent an average of 3 independent experiments performed in triplicate wells per compounds at 10 μM.
Cells were maintained in steroid-free media, and stimulated with 200 μM testosterone, followed immediately by administration of a test compound. […] Compounds were dosed at 10 μM in FIGS. 6A and 6B.
Cells were maintained in steroid-free media, and stimulated with 200 μM testosterone, followed immediately by administration of a test compound.

LNCAP AR = experiment: IncuCyte % confluence cell growth inhibition, LNCAP AR; assay type: cell-based; details: read-out: IC50 values (μM), LNCAP AR
Experimental: as §1

22Rv1 = experiment: IncuCyte % confluence cell growth inhibition, 22Rv1; assay type: cell-based; details: Homo sapiens, 22Rv1, read-out: IC50 values (μM), 22Rv1
Experimental: as §1

DU145 = experiment: IncuCyte % confluence cell growth inhibition, DU145; assay type: cell-based; details: Homo sapiens, DU-145, read-out: IC50 values (μM), DU145
Experimental: as §1

PC3 = experiment: IncuCyte % confluence cell growth inhibition, PC3; assay type: cell-based; details: Homo sapiens, PC-3, read-out: IC50 values (μM), PC3
Experimental: as §1

[1] = Pharmacokinetics in non-tumor bearing BALB/C mice, IV and PO; assay type: in vivo; details: for AUClast—D / Cmax—D: dose-normalised; for AUC(0-t) / Cmax / Tmax / half-life: mouse, plasma
Experimental: FIG. 14A-B are graphs of time (hours) versus plasma concentration (ng/mL) for intravenous (IV) (FIG. 14A) and oral (PO) (FIG. 14B) administration of 15a and 15n over 12 hours. Error bars represent the standard deviation in ng/mL from three independent mice per time point.
Clearance, Cmax, half life, dose/AUC, and bioavailability were calculated by statistical analysis using PHOENIX™ WINNONLIN™ v7.0 (Certara, Princeton, N.J.). The results are shown in FIGS. 14A and 14B and Table 4.

LuCaP 167 = LuCaP 167 prostate cancer PDX tumor growth; assay type: in vivo, NSG male mice; details: 10 mg/kg oral gavage, 5 days on 2 days off, LuCaP 167 PDX, FIG. 23
Experimental: LuCaP 167 is a well-characterized androgen sensitive prostate cancer (PCa) PDX model established at the University of Washington and has been validated using short tandem repeat (STR) analysis. All preclinical in vivo experiments were performed in accordance with NCI Animal Care and Use Committee approved protocol. Six-week-old NSGmale mice were housed in a sterile, pathogen-free facility and maintained in a temperature-controlled room under a 12-hour light/dark schedule with water and food ad libitum. All mice were operated under sedation with oxygen and isoflurane. Ibuprofen and/or buprenorphine was administered post-surgery. LuCaP 167 was implanted subcutaneously under the left flank of intact mice. When tumors reached an average volume of ˜500 mm^3, mice were randomized and placed in either control group or treatment groups (n=10/group). […] Tumor burden was assessed twice per week by caliper measurement of two diameters of the tumor (L×W=mm^2) and reported as tumor volume ((L×W^2)/2=mm^3). Body weights were assessed using a weighing scale and recorded in grams. At the end-of-treatment (EOT) timepoint, tumor tissues were excised, weighed, and snap frozen for further analysis.

LAMP cells [2] = experiment: Growth reduction kinetics in LAMP cells; assay type: cell-based; details: 15 μM and 30 μM, FIG. 20
Source text: (§2) This AR dominated cluster 1 is often driven by amplification of the distal AR enhancer (Takeda et al., Cell, 2018, 174(2), 422-432).

LAMP cells [3] = experiment: RNA-seq / gene set enrichment and master TF expression in LAMP cells; assay type: cell-based
Experimental: FIG. 16A-B are a Gene Set Enrichment Analysis for AR gene pathways (FIG. 16A) and MYC gene pathways (FIG. 16B) in LAMP cells (LNCaP cells engineered with CRISPR to have amplification of the AR enhancer) treated with either 15n or dimethylsulfoxide (DMSO) for 48 hours, followed by RNA-seq.
FIG. 16A-B are Gene Set Enrichment Analyses for AR gene pathways (FIG. 16A) and MYC gene pathways ([…]) in LAMP cells (LNCaP cells engineered with CRISPR (clustered regularly interspaced short palindromic repeats) to have amplification of the AR enhancer) treated with either 15n or DMSO for 48 hours, followed by RNA-seq.
as §2

[4] = tested on: LAPC4 prostate cancer cells; experiment: LAPC4 mouse xenograft tumor volume; assay type: in vivo, Mice; details: oral gavage, LAPC4 mouse xenografts, day 17, FIG. 22
Experimental: FIG. 22 is a graph of tumor volume on day 17 as a percent change from the baseline.
Treatment was given once for 5 days followed by 2 days of rest. Tumor size was monitored by caliper twice weekly. Change from baseline tumor volume was calculated and reported as a waterfall plot. The in vivo activity is shown in FIG. 14, as measured by the percent change from the baseline.

Compound	IC50 (LAPC4)	IC50 (LNCaP ARin vivo)	IC50 (LNCaP)	IC50 (LNCaP ARF876L)	antagonist or inverse agonist activity on AR transcriptional activity (in words) (AR)	activity at 10 µM (AR)	IC50 (LNCAP AR)	IC50 (22Rv1)	IC50 (DU145)	IC50 (PC3)	further results
CC1(C)C(=O)N(c2ccc(C#N)c(C(F)(F)F)c2)C(=O)N1Cc1ccc(-c2c[nH]nn2)cc1 [Compound 14a, 4-(3-(4-(1H-1,2,3-triazol-4-yl)benzyl)-4,4-dimethyl-2,5-dioxoimidazolidin-1-yl)-2-(trifluoromethyl)benzonitrile]	70 µM	65.4 µM	44.8 µM	35.9 µM	reduced the transcriptional activity of the AR well below the expression in the absence of any steroids or ligands	-64%	32.5 µM	46.5 µM	84.1 µM	68.5 µM	
CC1(C)C(=O)N(c2ccc(C#N)c(C(F)(F)F)c2)C(=S)N1c1ccc(-c2c[nH]nn2)cc1 [Compound 16a, 4-(3-(4-(1H-1,2,3-triazol-4-yl)phenyl)-4,4-dimethyl-5-oxo-2-thioxoimidazolidin-1-yl)-2-(trifluoromethyl)benzonitrile]	17.3 µM	33.6 µM	17.1 µM	30.2 µM	reduced the transcriptional activity of the AR well below the expression in the absence of any steroids or ligands	-22%	21.2 µM	20.7 µM	39.9 µM	49.2 µM	
CC1(C)C(=O)N(c2cnc(C#N)c(C(F)(F)F)c2)C(=S)N1Cc1ccc(-c2c[nH]nn2)cc1 [Compound 15n]											AUClast—D ([1]; IV, 1 mg/kg): 6255.85 kg·ng·h/mL/mg; Cmax—D ([1]; IV, 1 mg/kg): 936.94 kg·ng/mL/mg; AUClast—D ([1]; PO, 20 mg/kg): 4866.48 kg·ng·h/mL/mg; Cmax—D ([1]; PO, 20 mg/kg): 549.09 kg·ng/mL/mg; AUC(0-t) ([1]; IV, 1 mg/kg): 6260 ng·h/mL; Cmax ([1]; IV, 1 mg/kg): 937 ng/mL; Tmax ([1]; IV, 1 mg/kg): 0.5 h; half-life ([1]; IV, 1 mg/kg): 9.13 h; AUC(0-t) ([1]; PO, 20 mg/kg): 97300 ng·h/mL; Cmax ([1]; PO, 20 mg/kg): 11000 ng/mL; Tmax ([1]; PO, 20 mg/kg): 1 h; half-life ([1]; PO, 20 mg/kg): 22.3 h; anti-tumor effect (average tumor growth rate) (LuCaP 167): superior anti-tumor effect over enzalutamide; cell killing compared with enzalutamide (LAMP cells [2]): superior cell killing at lower doses than enzalutamide; ATF4 expression (LAMP cells [3]; 48 hours, FIG. 19): greatly reduced; AR target gene set (Gene Set Enrichment Analysis) (LAMP cells [3]; 48 hours, versus DMSO, RNA-seq): down regulated; MYC target gene set (Gene Set Enrichment Analysis) (LAMP cells [3]; 48 hours, versus DMSO, RNA-seq): down regulated; ATF4 driven amino-acid tRNA synthesis pathway (LAMP cells [3]; compared with enzalutamide): able to also downregulate; tumor burden (percent change from baseline tumor volume) [4]: retained its ability to reduce tumor burden
